Assay results published in the supplement of paper PMC10307832.

Legend:
Assay in all cases: relative viability (nuclei count vs DMSO), 5 days (fraction); higher = more cells survive
[1] = tested on: HCC-15
Outline: (§1)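 Lung cancer cell lines in 1536-well plates got either a single drug or a fixed anchor-drug dose together with five library-drug doses (not always all listed) in √10 steps, by pin tool, on the day after seeding. Nuclei were counted after 5 days, and relative viability is the treated-to-vehicle ratio of nuclei counts. Values are medians of duplicate plates.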

[2] = tested on: NCI-H1355
Outline: as §1

[3] = tested on: NCI-H1755
Outline: as §1

[4] = tested on: NCI-H647
Outline: as §1

[5] = tested on: COR-L23
Outline: as §1

[6] = tested on: SK-MES-1
Outline: as §1

[7] = tested on: NCI-H1734
Outline: as §1

[8] = tested on: NCI-H1993
Outline: as §1

[9] = tested on: NCI-H2347
Outline: as §1

[10] = tested on: NCI-H838
Outline: as §1

[11] = tested on: UMC-11
Outline: as §1

[12] = tested on: NCI-H358
Outline: as §1

[13] = tested on: HARA
Outline: as §1

[14] = tested on: NCI-H2170
Outline: as §1

[15] = tested on: HOP-62
Outline: as §1

[16] = tested on: NCI-H2009
Outline: as §1

[17] = tested on: NCI-H1793
Outline: as §1

[18] = tested on: NCI-H1395
Outline: as §1

[19] = tested on: NCI-H2228
Outline: as §1

[20] = tested on: COR-L 105
Outline: as §1

O=c1cc(-c2cccc3c2Sc2ccccc2S3)oc(N2CCOCC2)c1 + COc1cc2c(Oc3ccc(NC(=O)C4(C(=O)Nc5ccc(F)cc5)CC4)cc3F)ccnc2cc1OCCCN1CCOCC1 [Foretinib] (partner 0.25 µM)
relative viability ([1]; first compound 0.08 µM): 1.01 | relative viability ([1]; first compound 0.253 µM): 1.14 | relative viability ([1]; first compound 0.8 µM): 1 | relative viability ([1]; first compound 2.53 µM): 1.08 | relative viability ([1]; first compound 8 µM): 1.11 | relative viability ([2]; first compound 0.08 µM): 0.999 | relative viability ([2]; first compound 0.253 µM): 1.12 | relative viability ([2]; first compound 0.8 µM): 0.861 | relative viability ([2]; first compound 2.53 µM): 0.977 | relative viability ([2]; first compound 8 µM): 0.926 | relative viability ([3]; first compound 0.08 µM): 0.861 | relative viability ([3]; first compound 0.253 µM): 0.976 | relative viability ([3]; first compound 0.8 µM): 0.913 | relative viability ([3]; first compound 2.53 µM): 0.899 | relative viability ([3]; first compound 8 µM): 0.943 | relative viability ([4]; first compound 0.08 µM): 1.15 | relative viability ([4]; first compound 0.253 µM): 1.35 | relative viability ([4]; first compound 0.8 µM): 1.25 | relative viability ([4]; first compound 2.53 µM): 1.21 | relative viability ([4]; first compound 8 µM): 1.29 | relative viability ([5]; first compound 0.08 µM): 0.946 | relative viability ([5]; first compound 0.253 µM): 1.11 | relative viability ([5]; first compound 0.8 µM): 1.1 | relative viability ([5]; first compound 2.53 µM): 0.971 | relative viability ([5]; first compound 8 µM): 1.17 | relative viability ([6]; first compound 0.08 µM): 0.952 | relative viability ([6]; first compound 0.253 µM): 1.13 | relative viability ([6]; first compound 0.8 µM): 0.645 | relative viability ([6]; first compound 2.53 µM): 0.611 | relative viability ([6]; first compound 8 µM): 0.775 | relative viability ([7]; first compound 0.08 µM): 0.788 | relative viability ([7]; first compound 0.253 µM): 1.04 | relative viability ([7]; first compound 0.8 µM): 0.99 | relative viability ([7]; first compound 8 µM): 0.94 | relative viability ([8]; first compound 0.08 µM): 0.705 | relative viability ([8]; first compound 0.253 µM): 0.796 | relative viability ([8]; first compound 0.8 µM): 0.586 | relative viability ([8]; first compound 2.53 µM): 0.75 | relative viability ([8]; first compound 8 µM): 0.68 | relative viability ([9]; first compound 0.08 µM): 0.903 | relative viability ([9]; first compound 0.253 µM): 0.841 | relative viability ([9]; first compound 0.8 µM): 0.682 | relative viability ([9]; first compound 2.53 µM): 0.679 | relative viability ([9]; first compound 8 µM): 0.892 | relative viability ([10]; first compound 0.08 µM): 0.995 | relative viability ([10]; first compound 0.253 µM): 1.25 | relative viability ([10]; first compound 0.8 µM): 0.88 | relative viability ([10]; first compound 2.53 µM): 0.878 | relative viability ([10]; first compound 8 µM): 0.972 | relative viability ([11]; first compound 0.08 µM): 1.04 | relative viability ([11]; first compound 0.253 µM): 1.03 | relative viability ([11]; first compound 0.8 µM): 1.19 | relative viability ([11]; first compound 2.53 µM): 1.03 | relative viability ([11]; first compound 8 µM): 1.31 | relative viability ([12]; first compound 0.08 µM): 0.622 | relative viability ([12]; first compound 0.253 µM): 0.753 | relative viability ([12]; first compound 0.8 µM): 0.635 | relative viability ([12]; first compound 2.53 µM): 0.825 | relative viability ([12]; first compound 8 µM): 0.797 | relative viability ([13]; first compound 0.08 µM): 0.934 | relative viability ([13]; first compound 0.253 µM): 0.956 | relative viability ([13]; first compound 0.8 µM): 0.961 | relative viability ([13]; first compound 2.53 µM): 0.898 | relative viability ([13]; first compound 8 µM): 0.777 | relative viability ([14]; first compound 0.08 µM): 1.03 | relative viability ([14]; first compound 0.253 µM): 1.05 | relative viability ([14]; first compound 0.8 µM): 1.08 | relative viability ([14]; first compound 2.53 µM): 0.999 | relative viability ([14]; first compound 8 µM): 0.983 | relative viability ([15]; first compound 0.08 µM): 1.23 | relative viability ([15]; first compound 0.253 µM): 1.27 | relative viability ([15]; first compound 0.8 µM): 1.25 | relative viability ([15]; first compound 2.53 µM): 1.02 | relative viability ([15]; first compound 8 µM): 1.14 | relative viability ([16]; first compound 0.08 µM): 1.23 | relative viability ([16]; first compound 0.253 µM): 1.21 | relative viability ([16]; first compound 0.8 µM): 1.15 | relative viability ([16]; first compound 2.53 µM): 1.12 | relative viability ([16]; first compound 8 µM): 1.19 | relative viability ([17]; first compound 0.08 µM): 0.681 | relative viability ([17]; first compound 0.253 µM): 0.826 | relative viability ([17]; first compound 0.8 µM): 0.562 | relative viability ([17]; first compound 2.53 µM): 0.595 | relative viability ([17]; first compound 8 µM): 0.588 | relative viability ([18]; first compound 0.08 µM): 0.934 | relative viability ([18]; first compound 0.253 µM): 0.887 | relative viability ([18]; first compound 0.8 µM): 1.07 | relative viability ([18]; first compound 2.53 µM): 0.938 | relative viability ([18]; first compound 8 µM): 1.09 | relative viability ([19]; first compound 0.08 µM): 0.753 | relative viability ([19]; first compound 0.253 µM): 0.907 | relative viability ([19]; first compound 0.8 µM): 0.966 | relative viability ([19]; first compound 2.53 µM): 0.813 | relative viability ([19]; first compound 8 µM): 1.11 | relative viability ([20]; first compound 0.08 µM): 1.31 | relative viability ([20]; first compound 0.253 µM): 0.854 | relative viability ([20]; first compound 0.8 µM): 0.8 | relative viability ([20]; first compound 2.53 µM): 1.08 | relative viability ([20]; first compound 8 µM): 1.38

COc1nc(C)cnc1NS(=O)(=O)c1cccnc1-c1ccc(-c2nnco2)cc1 [Zibotentan] + COc1cc2c(Oc3ccc(NC(=O)C4(C(=O)Nc5ccc(F)cc5)CC4)cc3F)ccnc2cc1OCCCN1CCOCC1 [Foretinib] (partner 0.25 µM)
relative viability ([1]; first compound 0.08 µM): 1.05 | relative viability ([1]; first compound 0.8 µM): 1.03 | relative viability ([1]; first compound 2.53 µM): 1.05 | relative viability ([2]; first compound 0.08 µM): 0.988 | relative viability ([2]; first compound 0.253 µM): 1.02 | relative viability ([2]; first compound 0.8 µM): 0.955 | relative viability ([2]; first compound 2.53 µM): 0.927 | relative viability ([3]; first compound 0.08 µM): 0.943 | relative viability ([3]; first compound 0.253 µM): 0.897 | relative viability ([3]; first compound 0.8 µM): 0.897 | relative viability ([3]; first compound 2.53 µM): 0.929 | relative viability ([4]; first compound 0.08 µM): 1.13 | relative viability ([4]; first compound 0.253 µM): 0.996 | relative viability ([4]; first compound 0.8 µM): 1.06 | relative viability ([4]; first compound 2.53 µM): 1.29 | relative viability ([5]; first compound 0.08 µM): 1.21 | relative viability ([5]; first compound 0.253 µM): 0.926 | relative viability ([5]; first compound 0.8 µM): 0.989 | relative viability ([5]; first compound 2.53 µM): 0.894 | relative viability ([6]; first compound 0.08 µM): 0.974 | relative viability ([6]; first compound 0.253 µM): 0.886 | relative viability ([6]; first compound 0.8 µM): 0.974 | relative viability ([6]; first compound 2.53 µM): 1.02 | relative viability ([7]; first compound 0.08 µM): 0.875 | relative viability ([7]; first compound 0.253 µM): 0.773 | relative viability ([7]; first compound 0.8 µM): 0.883 | relative viability ([7]; first compound 2.53 µM): 0.812 | relative viability ([8]; first compound 0.08 µM): 0.753 | relative viability ([8]; first compound 0.253 µM): 0.811 | relative viability ([8]; first compound 0.8 µM): 0.702 | relative viability ([8]; first compound 2.53 µM): 0.832 | relative viability ([9]; first compound 0.08 µM): 0.995 | relative viability ([9]; first compound 0.253 µM): 0.896 | relative viability ([9]; first compound 0.8 µM): 0.947 | relative viability ([9]; first compound 2.53 µM): 0.655 | relative viability ([10]; first compound 0.08 µM): 0.992 | relative viability ([10]; first compound 0.253 µM): 0.934 | relative viability ([10]; first compound 0.8 µM): 1.06 | relative viability ([10]; first compound 2.53 µM): 1.08 | relative viability ([11]; first compound 0.08 µM): 1.05 | relative viability ([11]; first compound 0.253 µM): 0.92 | relative viability ([11]; first compound 0.8 µM): 0.991 | relative viability ([11]; first compound 2.53 µM): 1.04 | relative viability ([12]; first compound 0.08 µM): 0.809 | relative viability ([12]; first compound 0.253 µM): 0.485 | relative viability ([12]; first compound 0.8 µM): 0.595 | relative viability ([12]; first compound 2.53 µM): 0.57 | relative viability ([13]; first compound 0.08 µM): 1 | relative viability ([13]; first compound 0.253 µM): 0.743 | relative viability ([13]; first compound 0.8 µM): 0.883 | relative viability ([13]; first compound 2.53 µM): 0.874 | relative viability ([14]; first compound 0.08 µM): 1.05 | relative viability ([14]; first compound 0.253 µM): 1.07 | relative viability ([14]; first compound 0.8 µM): 1.03 | relative viability ([14]; first compound 2.53 µM): 0.969 | relative viability ([15]; first compound 0.08 µM): 1.06 | relative viability ([15]; first compound 0.253 µM): 1.06 | relative viability ([15]; first compound 0.8 µM): 1.21 | relative viability ([15]; first compound 2.53 µM): 1.07 | relative viability ([16]; first compound 0.08 µM): 1.25 | relative viability ([16]; first compound 0.253 µM): 1.24 | relative viability ([16]; first compound 0.8 µM): 1.28 | relative viability ([16]; first compound 2.53 µM): 1.35 | relative viability ([17]; first compound 0.08 µM): 0.993 | relative viability ([17]; first compound 0.253 µM): 0.721 | relative viability ([17]; first compound 0.8 µM): 0.546 | relative viability ([17]; first compound 2.53 µM): 0.808 | relative viability ([18]; first compound 0.08 µM): 1.02 | relative viability ([18]; first compound 0.253 µM): 1.07 | relative viability ([18]; first compound 0.8 µM): 1.04 | relative viability ([18]; first compound 2.53 µM): 0.941 | relative viability ([19]; first compound 0.08 µM): 0.714 | relative viability ([19]; first compound 0.253 µM): 0.819 | relative viability ([19]; first compound 0.8 µM): 0.889 | relative viability ([19]; first compound 2.53 µM): 0.801 | relative viability ([20]; first compound 0.08 µM): 1.31 | relative viability ([20]; first compound 0.253 µM): 0.996 | relative viability ([20]; first compound 0.8 µM): 1.1 | relative viability ([20]; first compound 2.53 µM): 1.03
